Laboratory results: publication PMC9490060, “Synthesis and evaluation of anticancer activity of quillaic acid derivatives: A cell cycle arrest and apoptosis inducer through NF-κB and MAPK pathways” (Frontiers in Chemistry, 2022)

How the values were obtained:
[1] = Stability under pharmacological experimental conditions (RPMI 1640 medium, liquid phase detection); format: physicochemical
Experimental: Experimental method: Samples A-E were prepared and detected by liquid phase. Details are as follows.
A: The purity of compound E was detected by liquid phase, and the peak time of compound E was judged.
B: Liquid detection RPMI 1640 medium
C: Compound E was dissolved in the RPMI 1640 medium and detected by liquid phase.
D: Compound E was dissolved in the RPMI 1640 medium and placed in the incubator for 24 hours before detection by liquid phase.
E: Compound E was dissolved in the RPMI 1640 medium and placed in the incubator for 48 hours before detection by liquid phase.

[2] = tested on: BEL7402 (human hepatocellular carcinoma cell line); experiment: MTT anti-proliferative assay, BEL7402; format: cell-based; settings: means ± SD, n = 3
How it was run: (§1)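 Cells seeded at 1 × 10^4–1.2 × 10^4 per well were allowed to adhere 24 h, then exposed 48 h at 37 °C, 5% CO2 to compound at 1.25, 2.5, 5 and 10 μM (DMSO ≤0.1%). MCF-7 and HepG2 were grown in DMEM, HCT116 and BEL7402 in RPMI 1640, each with 10% FBS. MTT (final 2 mg/ml) was added for 4 h; formazan was dissolved in DMSO and read at 492 nm.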

[3] = tested on: MCF-7 (human breast cancer cell line); experiment: MTT anti-proliferative assay, MCF-7; format: cell-based; settings: means ± SD, n = 3
How it was run: as §1

IκB = experiment: Western blot, NF-κB signaling pathway: IκB; format: cell-based, human; settings: HCT116, 2.5, 5 and 10 μM, 24 h
From the text: The NF-κB pathway plays an important role in a variety of cellular functions, including cell growth, apoptosis, and tumorigenesis ([Hwang et al., 2012]). Interfering with NF-κB signaling can inhibit tumor cell proliferation and metastasis ([Yenmis et al., 2021]). Therefore, NF-κB inhibitors are considered as potential anticancer drugs ([Wang et al., 2017]).
FIGURE 8 Effect of compound E on NF-κB signaling pathway in HCT116 cells. Cells were pretreated with the various concentrations of compound E (2.5, 5 and 10 μM) for 24 h. The expression of phospho-NF-κB p65, NF-κB p65, phospho-IκB, IκB were analyzed by Western blot. ***p < 0.001, **p < 0.01, *p < 0.05 vs. control group. The error bars represent the mean ± SD for three independent experiments.
(§2) HCT116 cells were cultured with different concentrations of compound E for 24 h. Then, the floating cells were collected and washed twice with ice-cold PBS. Add cold RIPA buffer. After the cells were lysed on ice for 20 min, the lysate was centrifuged at 12,000 rpm for 15 min at 4°C. The BCA method determines the protein concentration. Separated by SDS/PAGE electrophoresis and transferred to a nitrocellulose filter membrane for Western blot analysis. The membrane was blocked with PBS containing 5% skim milk at room temperature for 2 h. […] The protein is detected by electrochemiluminescence (Bio-Rad, CA, United State).

Bcl-2 = experiment: Western blot, Bcl-2 expression; format: cell-based, human; settings: HCT116, 10 μM, 24 h
Experimental: The Bcl-2 protein family (including the anti-apoptotic protein Bcl-2 and the pro-apoptotic protein Bax) is a group of key apoptotic proteins that play an important role in the regulation of apoptosis ([Han et al., 2013]; [Zhang and Saghatelian, 2013]; [Zheng et al., 2021]). HCT116 cells were treated with different concentrations (2.5, 5, and 10 μM) of E to detect the expression of Bax and Bcl-2 proteins.
FIGURE 7 Effect of compound E on the levels of Bax, and Bcl-2 in HCT116 cells. Cells were pretreated with the various concentrations of compound E (2.5, 5 and 10 μM) for 24 h. The expression of Bax, and Bcl-2 were analyzed by Western blot. ***p < 0.001, **p < 0.01, *p < 0.05 vs. control group. The error bars represent the mean ± SD for three independent experiments.
as §2

[4] = tested on: SW620 (human colorectal cancer cell line); experiment: MTT anti-proliferative assay, SW620; format: cell-based; settings: means ± SD, n = 3

CC1(C)CC[C@]2(C(=O)OCCn3nnnc3-c3ccccc3)[C@H](O)C[C@]3(C)C(=CC[C@@H]4[C@@]5(C)CC[C@H](O)[C@@](C)(C=O)[C@@H]5CC[C@]43C)[C@@H]2C1 [Compound E, 2-(5-phenyl-1H-tetrazol-1-yl)ethyl (4aR,5R,6aS,6bR,8aR,9S,10S,12aR,12bR,14bS)-9-formyl-5,10-dihydroxy-2,2,6a,6b,9,12a-hexamethyl-1,3,4,5,6,6a,6b,7,8,8a,9,10,11,12,12a,12b,13,14b-octadecahydropicene-4a (2H)-carboxylate]
content of compound E (HPLC peak) ([1]; after 24 hours in incubator): 20.495%
content of compound E (HPLC peak) ([1]; after 48 hours in incubator): 19.557%
content of compound E (HPLC peak) ([1]; check directly/0 hours): 20.461%
stability under pharmacological experimental conditions ([1]; incubator, up to 48 hours): high stability
IC50 values BEL7402 ([2]; 48 h incubation): strong activity
IC50 ([2]; Homo sapiens, Bel-7402, 48 h incubation): 6.89 ± 1.69 µM
IC50 values MCF-7 ([3]; 48 h incubation): strong activity
IC50 ([3]; Homo sapiens, MCF7, 48 h incubation): 7.59 ± 1.78 µM
phosphorylation and degradation of IκB (IκB): inhibited the phosphorylation and degradation of IκB
level of Bcl-2 (Bcl-2): decreased
IC50 values SW620 ([4]; 48 h incubation): strong activity
IC50 ([4]; Homo sapiens, SW-620, 48 h incubation): 4.69 ± 1.1 µM
